Measured values taken from patent US20260008752A1, “POLYMORPHIC FORMS OF FLORBETAPIR PRECURSOR AV-105” (ELI LILLY AND COMPANY, priority 2022, published 2026).
Values after ≈ are worked out from the molar mass of the structure shown.

Tests used:
Assay type in all cases: physicochemical
[1] = Long term slurry experiments (solid form by XRPD after ~2 weeks)
Description: Samples of starting material were suspended in specified solvents and triturated at specified temperatures. After approximately 24 hours, suspensions were transferred into Spin-X centrifuge tubes equipped with solids 0.45-μm nylon filters and centrifuged. Solids separated were resuspended in fresh solvents and the agitation was continued for a total of 2 weeks. Solids were isolated as described above and analyzed by XRPD.
(§1) Unless otherwise specified, solids of AV-105 were composed of Form A and were agitated in specified solvents at specified temperatures. Solvents were replaced after approximately 24 hours, where possible. After ˜2 weeks, solids were separated from supernatants via centrifugation with filtration and analyzed by XRPD. Solubilities were evaluated as a single, small scale measurement via gravimetric method using supernatants separated from the solids. Organic solvents used are anhydrous. […] Approximate solvent ratios are expressed in % by volume. Temperatures and duration of experiments are approximate.

[2] = Differential scanning calorimetry (heat-of-fusion rule); conditions: at all temperatures; forms monotropically related
Description: (onset) with a heat of fusion of 78.9 J/g (FIG. 4). […] This is consistent with the screen findings, where conversion of Form A into Form B has been observed in a wide temperature range, between 2-8° C. and 45° C.

[3] = Equilibrium solubility, gravimetric, from slurry supernatants; conditions: thermodynamic from solid
Description: Measured aliquots of supernatants isolated from the solids were placed in pre-weighed TGA pans for evaporation.
as §1

**Q.** With `Cc1ccc(S(=O)(=O)OCCOCCOCCOc2ccc(/C=C/c3ccc(N(C)C(=O)OC(C)(C)C)cc3)cn2)cc1` [Form B] as the compound, how does the “Thermodynamic stability from slurry experiments” value ([1]; between 2-8° C. and 45° C.) read?
**A.** The value was “thermodynamically the more stable form”.

**Q.** What about the “Relative thermodynamic stability from DSC (heat-of-fusion rule)” value [2] of the same compound?
**A.** The value was “more stable than Form A”.

**Q.** What does the source list for `Cc1ccc(S(=O)(=O)OCCOCCOCCOc2ccc(/C=C/c3ccc(N(C)C(=O)OC(C)(C)C)cc3)cn2)cc1` [AV-105]?
**A.** XRPD Results/observations ([1]; ACN/water 50/50, Aw 0.90, RT, start Form A, ~2 weeks slurry): Form B; XRPD Results/observations ([1]; CPME, 2-8° C., start Form A, ~2 weeks slurry): Form B; XRPD Results/observations ([1]; CPME, RT, start Form A, ~2 weeks slurry): Form B; XRPD Results/observations ([1]; EtOAc/heptane 40/60, 2-8° C., start Form A, ~2 weeks slurry): Form B; XRPD Results/observations ([1]; EtOAc/heptane 40/60, 35° C., start Form A, ~2 weeks slurry): Form B; XRPD Results/observations ([1]; EtOAc/heptane 40/60, RT, start Form A, ~2 weeks slurry): Form B; XRPD Results/observations ([1]; EtOH, 2-8° C., with solvent replacement, start Form A): Form B; XRPD Results/observations ([1]; EtOH, 45° C. (a), starting material mixture of Form A/Form B): Yellow gel; XRPD Results/observations ([1]; EtOH, 45° C., start Form A): Yellow solution,; XRPD Results/observations ([1]; EtOH, RT, with solvent replacement (a), starting material mixture of Form A/Form B): Form B; XRPD Results/observations ([1]; EtOH, RT, with solvent replacement, start Form A): Form B; XRPD Results/observations ([1]; IPA, 45° C., start Form A): Form B; XRPD Results/observations ([1]; IPA, RT, with solvent replacement, start Form A): Form B; XRPD Results/observations ([1]; IPrOAc, 35° C., start Form A): Form B; XRPD Results/observations ([1]; IPrOAc, RT, start Form A): Form B; XRPD Results/observations ([1]; MIBK/heptane 40/60, RT, start Form A): Form B; XRPD Results/observations ([1]; MIBK, 2-8° C., start Form A): Form B; XRPD Results/observations ([1]; MIBK, 35° C., start Form A): Form B; XRPD Results/observations ([1]; MIBK, RT, start Form A): Form B; XRPD Results/observations ([1]; MTBE, RT, start Form A): Form B; XRPD Results/observations ([1]; MeOH, 2-8° C., with solvent replacement, start Form A): Form B; XRPD Results/observations ([1]; MeOH, 45° C., start Form A): Orange gel; XRPD Results/observations ([1]; MeOH, Freezer, start Form A): Form B + small; XRPD Results/observations ([1]; MeOH, RT, with solvent replacement, start Form A): Form B; XRPD Results/observations ([1]; THF/cyclohexane 30/70, 2-8° C., start Form A): Form B; XRPD Results/observations ([1]; THF/cyclohexane 30/70, RT, start Form A): Form B; XRPD Results/observations ([1]; Water, 70° C., start Form A): Orange gel after; XRPD Results/observations ([1]; Water, RT, start Form A): Form A; solubility ([3]; ACN/water 50/50 slurry supernatant, aqueous with cosolvent or surfactant or cyclodextrin, ACN/water 50/50, Aw 0.90, RT, solid Form B): 2 mg/mL (≈ 3.26 mM); solubility ([3]; CPME slurry supernatant, 2 °C, organic solvent or mixture, CPME, 2-8° C., solid Form B): 25 mg/mL (≈ 40.8 mM); solubility ([3]; CPME slurry supernatant, organic solvent or mixture, CPME, RT, solid Form B): 47 mg/mL (≈ 76.7 mM); solubility ([3]; EtOAc/heptane 40/60 slurry supernatant, 2 °C, organic solvent or mixture, EtOAc/heptane 40/60, 2-8° C., solid Form B): 6 mg/mL (≈ 9.79 mM); solubility ([3]; EtOAc/heptane 40/60 slurry supernatant, 35 °C, organic solvent or mixture, EtOAc/heptane 40/60, solid Form B): 34 mg/mL (≈ 55.5 mM); solubility ([3]; EtOAc/heptane 40/60 slurry supernatant, organic solvent or mixture, EtOAc/heptane 40/60, RT, solid Form B): 27 mg/mL (≈ 44.1 mM); solubility ([3]; EtOH slurry supernatant, 2 °C, organic solvent or mixture, EtOH, 2-8° C., with solvent replacement, solid Form B): 3 mg/mL (≈ 4.9 mM); solubility ([3]; EtOH slurry supernatant, organic solvent or mixture, EtOH, RT, with solvent replacement (a), starting material mixture of Form A/Form B, solid Form B): 7 mg/mL (≈ 11.4 mM); solubility ([3]; EtOH slurry supernatant, organic solvent or mixture, EtOH, RT, with solvent replacement, solid Form B): 7 mg/mL (≈ 11.4 mM); solubility ([3]; IPA slurry supernatant, 45 °C, organic solvent or mixture, IPA, solid Form B): 44 mg/mL (≈ 71.8 mM); solubility ([3]; IPA slurry supernatant, organic solvent or mixture, IPA, RT, with solvent replacement, solid Form B): 4 mg/mL (≈ 6.53 mM); solubility ([3]; IPrOAc slurry supernatant, 35 °C, organic solvent or mixture, IPrOAc, solid Form B): 232 mg/mL (≈ 379 mM); solubility ([3]; IPrOAc slurry supernatant, organic solvent or mixture, IPrOAc, RT, solid Form B): 93 mg/mL (≈ 152 mM); solubility ([3]; MIBK slurry supernatant, 2 °C, organic solvent or mixture, MIBK, 2-8° C., solid Form B): 128 mg/mL (≈ 209 mM); solubility ([3]; MIBK slurry supernatant, 35 °C, organic solvent or mixture, MIBK, solid Form B): 277 mg/mL (≈ 452 mM); solubility ([3]; MIBK slurry supernatant, organic solvent or mixture, MIBK, RT, solid Form B): 137 mg/mL (≈ 224 mM); solubility ([3]; MIBK/heptane 40/60 slurry supernatant, organic solvent or mixture, MIBK/heptane 40/60, RT, solid Form B): 15 mg/mL (≈ 24.5 mM); solubility ([3]; MTBE slurry supernatant, organic solvent or mixture, MTBE, RT, solid Form B): 34 mg/mL (≈ 55.5 mM); solubility ([3]; MeOH slurry supernatant, 2 °C, organic solvent or mixture, MeOH, 2-8° C., with solvent replacement, solid Form B): 6 mg/mL (≈ 9.79 mM); solubility ([3]; MeOH slurry supernatant, organic solvent or mixture, MeOH, Freezer, solid Form B + small additional peaks): 5 mg/mL; solubility ([3]; MeOH slurry supernatant, organic solvent or mixture, MeOH, RT, with solvent replacement, solid Form B): 13 mg/mL (≈ 21.2 mM); solubility ([3]; THF/cyclohexane 30/70 slurry supernatant, 2 °C, organic solvent or mixture, THF/cyclohexane 30/70, 2-8° C., solid Form B): 55 mg/mL (≈ 89.8 mM); solubility ([3]; THF/cyclohexane 30/70 slurry supernatant, organic solvent or mixture, THF/cyclohexane 30/70, RT, solid Form B): 370 mg/mL (≈ 604 mM)

**Q.** With `Cc1ccc(S(=O)(=O)OCCOCCOCCOc2ccc(/C=C/c3ccc(N(C)C(=O)OC(C)(C)C)cc3)cn2)cc1` [Form A] as the compound, how does the “Form change on slurrying in a variety of solvent systems” value ([1]; all solvent systems tested between 2-8° C. and 45° C.) read?
**A.** The value was “conversion to Form B”.
